Species: Rattus norvegicus
Assay: DrugMatrix - Regimen: Daily Repeat
Format: toxicity, organism-based, Sprague-Dawley
Parameters: regimen Daily Repeat, gender Male, age 6-8 weeks
Settings: in vivo, sc, route subcutaneous, […]; for ABSOLUTE BASOPHIL / ABSOLUTE EOSINOPHIL / ABSOLUTE LYMPHOCYTE / ABSOLUTE MONOCYTE / ABSOLUTE SEGMENTED NEUTROPHIL / BASOPHIL / EOSINOPHIL / ERYTHROCYTE COUNT / HEMATOCRIT / HEMOGLOBIN / LEUKOCYTE COUNT / LYMPHOCYTE / MEAN CORPUSCULAR HEMOGLOBIN / MEAN CORPUSCULAR HEMOGLOBIN CONCENTRATION / MEAN CORPUSCULAR VOLUME / MONOCYTE / NEUTROPHIL / NUCLEATED RED BLOOD CELLS / PLATELET COUNT: tissue Blood; for ALANINE AMINOTRANSFERASE / ALBUMIN / ALKALINE PHOSPHATASE / ASPARTATE AMINOTRANSFERASE / BLOOD UREA NITROGEN / CARBON DIOXIDE / CHLORIDE / CHOLESTEROL / CREATINE PHOSPHOKINASE / CREATININE / GLUCOSE / LACTATE DEHYDROGENASE / LIPASE / PHOSPHORUS / POTASSIUM / SODIUM / TOTAL BILIRUBIN / TOTAL PROTEIN / URIC ACID: tissue Plasma
[1] = 260 mg/kg, 72 h, dose level Low, time 3 day
[2] = 260 mg/kg, 120 h, dose level Low, time 5 day
[3] = 2600 mg/kg, 72 h, dose level High, time 3 day
[4] = 2600 mg/kg, 120 h, dose level High, time 5 day

c1ccc2sc(SSc3nc4ccccc4s3)nc2c1 [BENZOTHIAZYL DISULFIDE]
ABSOLUTE BASOPHIL [1]: 0 CELLS/uL | ABSOLUTE EOSINOPHIL [1]: 108 CELLS/uL | ABSOLUTE LYMPHOCYTE [1]: 9435.33 CELLS/uL | ABSOLUTE MONOCYTE [1]: 328 CELLS/uL | ABSOLUTE SEGMENTED NEUTROPHIL [1]: 1062 CELLS/uL | BASOPHIL [1]: 0% | EOSINOPHIL [1]: 1% | ERYTHROCYTE COUNT [1]: 5.25 x10E6/uL | HEMATOCRIT [1]: 33.03% | HEMOGLOBIN [1]: 12.27 G/DL | LEUKOCYTE COUNT [1]: 10.93 x10E3/uL | LYMPHOCYTE [1]: 86.33% | MEAN CORPUSCULAR HEMOGLOBIN [1]: 23.33 pg | MEAN CORPUSCULAR HEMOGLOBIN CONCENTRATION [1]: 37.13 G/DL | MEAN CORPUSCULAR VOLUME [1]: 62.87 fL | MONOCYTE [1]: 3% | NEUTROPHIL [1]: 9.67% | NUCLEATED RED BLOOD CELLS [1]: 0 /100WBC | PLATELET COUNT [1]: 1377.33 x10E3/uL | ALANINE AMINOTRANSFERASE [1]: 42 u/L | ALBUMIN [1]: 3.87 G/DL | ALKALINE PHOSPHATASE [1]: 365.33 u/L | ASPARTATE AMINOTRANSFERASE [1]: 91.67 u/L | BLOOD UREA NITROGEN [1]: 16 mg/dL | CARBON DIOXIDE [1]: 26 mmol/L | CHLORIDE [1]: 105.33 MEQ/L | CHOLESTEROL [1]: 77.33 mg/dL | CREATINE PHOSPHOKINASE [1]: 411.33 u/L | CREATININE [1]: 0.21 mg/dL | GLUCOSE [1]: 149.33 mg/dL | LACTATE DEHYDROGENASE [1]: 600.33 u/L | LIPASE [1]: 8.67 u/L | PHOSPHORUS [1]: 12.73 mg/dL | POTASSIUM [1]: 6.51 MEQ/L | SODIUM [1]: 145.03 MEQ/L | TOTAL BILIRUBIN [1]: 0.17 mg/dL | TOTAL PROTEIN [1]: 5.4 G/DL | URIC ACID [1]: 1.47 mg/dL | ABSOLUTE BASOPHIL [2]: 0 CELLS/uL | ABSOLUTE EOSINOPHIL [2]: 214.33 CELLS/uL | ABSOLUTE LYMPHOCYTE [2]: 15055 CELLS/uL | ABSOLUTE MONOCYTE [2]: 283.33 CELLS/uL | ABSOLUTE SEGMENTED NEUTROPHIL [2]: 1280.67 CELLS/uL | BASOPHIL [2]: 0% | EOSINOPHIL [2]: 1.33% | ERYTHROCYTE COUNT [2]: 5.49 x10E6/uL | HEMATOCRIT [2]: 34.87% | HEMOGLOBIN [2]: 13.17 G/DL | LEUKOCYTE COUNT [2]: 16.83 x10E3/uL | LYMPHOCYTE [2]: 89.33% | MEAN CORPUSCULAR HEMOGLOBIN [2]: 24.1 pg | MEAN CORPUSCULAR HEMOGLOBIN CONCENTRATION [2]: 37.8 G/DL | MEAN CORPUSCULAR VOLUME [2]: 63.7 fL | MONOCYTE [2]: 1.67% | NEUTROPHIL [2]: 7.67% | NUCLEATED RED BLOOD CELLS [2]: 0.67 /100WBC | PLATELET COUNT [2]: 1489.67 x10E3/uL | ALANINE AMINOTRANSFERASE [2]: 39 u/L | ALBUMIN [2]: 3.93 G/DL | ALKALINE PHOSPHATASE [2]: 463.33 u/L | ASPARTATE AMINOTRANSFERASE [2]: 92.67 u/L | BLOOD UREA NITROGEN [2]: 18.33 mg/dL | CARBON DIOXIDE [2]: 28.33 mmol/L | CHLORIDE [2]: 105.33 MEQ/L | CHOLESTEROL [2]: 70.67 mg/dL | CREATINE PHOSPHOKINASE [2]: 529 u/L | CREATININE [2]: 0.19 mg/dL | GLUCOSE [2]: 169 mg/dL | LACTATE DEHYDROGENASE [2]: 102.33 u/L | LIPASE [2]: 8 u/L | PHOSPHORUS [2]: 12.13 mg/dL | POTASSIUM [2]: 6.59 MEQ/L | SODIUM [2]: 147.43 MEQ/L | TOTAL BILIRUBIN [2]: 0.2 mg/dL | TOTAL PROTEIN [2]: 5.63 G/DL | URIC ACID [2]: 1.63 mg/dL | ABSOLUTE BASOPHIL [3]: 0 CELLS/uL | ABSOLUTE EOSINOPHIL [3]: 50.67 CELLS/uL | ABSOLUTE LYMPHOCYTE [3]: 11758.67 CELLS/uL | ABSOLUTE MONOCYTE [3]: 266.67 CELLS/uL | ABSOLUTE SEGMENTED NEUTROPHIL [3]: 857.33 CELLS/uL | BASOPHIL [3]: 0% | EOSINOPHIL [3]: 0.33% | ERYTHROCYTE COUNT [3]: 5.31 x10E6/uL | HEMATOCRIT [3]: 32.77% | HEMOGLOBIN [3]: 12.3 G/DL | LEUKOCYTE COUNT [3]: 12.93 x10E3/uL | LYMPHOCYTE [3]: 91.33% | MEAN CORPUSCULAR HEMOGLOBIN [3]: 23.2 pg | MEAN CORPUSCULAR HEMOGLOBIN CONCENTRATION [3]: 37.53 G/DL | MEAN CORPUSCULAR VOLUME [3]: 61.7 fL | MONOCYTE [3]: 2% | NEUTROPHIL [3]: 6.33% | NUCLEATED RED BLOOD CELLS [3]: 0 /100WBC | PLATELET COUNT [3]: 1463.67 x10E3/uL | ALANINE AMINOTRANSFERASE [3]: 24.33 u/L | ALBUMIN [3]: 3.73 G/DL | ALKALINE PHOSPHATASE [3]: 327.67 u/L | ASPARTATE AMINOTRANSFERASE [3]: 90.67 u/L | BLOOD UREA NITROGEN [3]: 16 mg/dL | CARBON DIOXIDE [3]: 24 mmol/L | CHLORIDE [3]: 104 MEQ/L | CHOLESTEROL [3]: 76.33 mg/dL | CREATINE PHOSPHOKINASE [3]: 376.67 u/L | CREATININE [3]: 0.16 mg/dL | GLUCOSE [3]: 151.67 mg/dL | LACTATE DEHYDROGENASE [3]: 543.33 u/L | LIPASE [3]: 8.33 u/L | PHOSPHORUS [3]: 12 mg/dL | POTASSIUM [3]: 6.59 MEQ/L | SODIUM [3]: 145.13 MEQ/L | TOTAL BILIRUBIN [3]: 0.3 mg/dL | TOTAL PROTEIN [3]: 5.2 G/DL | URIC ACID [3]: 1.63 mg/dL | ABSOLUTE BASOPHIL [4]: 0 CELLS/uL | ABSOLUTE EOSINOPHIL [4]: 0 CELLS/uL | ABSOLUTE LYMPHOCYTE [4]: 11990.67 CELLS/uL | ABSOLUTE MONOCYTE [4]: 262 CELLS/uL | ABSOLUTE SEGMENTED NEUTROPHIL [4]: 914 CELLS/uL | BASOPHIL [4]: 0% | EOSINOPHIL [4]: 0% | ERYTHROCYTE COUNT [4]: 5.81 x10E6/uL | HEMATOCRIT [4]: 36.07% | HEMOGLOBIN [4]: 13.33 G/DL | LEUKOCYTE COUNT [4]: 13.17 x10E3/uL | LYMPHOCYTE [4]: 91% | MEAN CORPUSCULAR HEMOGLOBIN [4]: 22.97 pg | MEAN CORPUSCULAR HEMOGLOBIN CONCENTRATION [4]: 36.97 G/DL | MEAN CORPUSCULAR VOLUME [4]: 62.1 fL | MONOCYTE [4]: 2% | NEUTROPHIL [4]: 7% | NUCLEATED RED BLOOD CELLS [4]: 0 /100WBC | PLATELET COUNT [4]: 1293.33 x10E3/uL | ALANINE AMINOTRANSFERASE [4]: 31 u/L | ALBUMIN [4]: 3.6 G/DL | ALKALINE PHOSPHATASE [4]: 266.33 u/L | ASPARTATE AMINOTRANSFERASE [4]: 72 u/L | BLOOD UREA NITROGEN [4]: 14.67 mg/dL | CARBON DIOXIDE [4]: 26.33 mmol/L | CHLORIDE [4]: 105.67 MEQ/L | CHOLESTEROL [4]: 83 mg/dL | CREATINE PHOSPHOKINASE [4]: 133 u/L | CREATININE [4]: 0.23 mg/dL | GLUCOSE [4]: 156 mg/dL | LACTATE DEHYDROGENASE [4]: 67.67 u/L | LIPASE [4]: 8.67 u/L | PHOSPHORUS [4]: 12.23 mg/dL | POTASSIUM [4]: 6.11 MEQ/L | SODIUM [4]: 145.9 MEQ/L | TOTAL BILIRUBIN [4]: 0.1 mg/dL | TOTAL PROTEIN [4]: 5.63 G/DL | URIC ACID [4]: 2 mg/dL
